Results: patent publication US10869878B2, “Vaginal composition and use thereof” (SINGAPORE ZE&Z INTERNATIONAL PTE. LTD, priority 2014, dated 2020)

What was measured:
Format in all cases: cell-based
BV-associated bacteria [1] = test: Acid production by BV-associated bacteria in semi-solid agars containing a carbohydrate, anaerobic incubation (Experimental Example 2); settings: 24 hrs anaerobic, 37° C., 1.5% (w/v) carbohydrate, initial pH 5.4
Description: (1) Grouping in experiment: • (1) Glucose group: containing 1.5% (w/v) glucose, MRS basal medium without carbohydrate, 5% (w/v) calf serum, and 0.45% (w/v) agar, pH5.4; • (2) Fructose group: containing 1.5% (w/v) fructose, MRS basal medium without carbohydrate, 5% (w/v) calf serum, and 0.45% (w/v) agar, pH5.4; • (3) Mannose group: containing 1.5% (w/v) mannose, MRS basal medium without carbohydrate, 5% (w/v) calf serum, and 0.45% (w/v) agar, pH5.4; • (4) Sucrose group: containing 1.5% (w/v) sucrose, MRS basal medium without carbohydrate, 5% (w/v) calf serum, and 0.45% (w/v) agar, pH5.4; • (5) Maltose group: containing 1.5% (w/v) maltose, MRS basal medium without carbohydrate, 5% (w/v) calf serum, and 0.45% (w/v) agar, pH5.4; • (6) Isomaltose group: containing 1.5% (w/v) isomaltose, MRS basal medium without carbohydrate, 5% (w/v) calf serum, and 0.45% (w/v) agar, pH5.4; and • (7) Isomaltulose group: containing 1.5% (w/v) isomaltulose, MRS basal medium without carbohydrate, 5% (w/v) calf serum, and 0.45% (w/v) agar, pH5.4.
The semi-solid agar of each group was formulated essentially following the method described in Composition Example 1, then sterilized, added with calf serum, and packed in test tubes in a specification of 5 g/tube, for late use.
(§1) (2) Secretion specimens from BV patients: vaginal secretions from 5 BV patients; and the criteria of inclusion are: • (1) conforming to the Amsel clinical criteria of BV diagnosis, wherein the pH value of the vaginal secretions was >4.6; • (2) after smearing, Gram staining and microscopical examination of vaginal secretions, Nugent score ≥7; and • (3) no other vaginosis and no antimicrobial agent is used within two weeks.
(3) After sampling, the secretion specimens from BV patients meeting the criteria of inclusion were immediately inoculated to the above 7 aseptic semi-solid agars containing a carbohydrate at the bedside and anaerobically incubated at 37° C. for 24 hrs. The pH values of the agar matrices are detected with a precise pH test paper.

BV-associated bacteria [2] = test: Acid production by BV-associated bacteria, carbohydrates and antibacterial agents in combination (Experimental Example 3); settings: anaerobic, 37° C., 1.5% (w/v) carbohydrate, initial pH 5.4
Description: (1) Grouping in experiment: • (1) Sucrose-preservative group: containing 1.5% (w/v) sucrose, 0.5% (w/v) sodium propionate, 0.025% (w/v) sodium dehydroacetate, MRS basal medium without carbohydrate, 5% (w/v) calf serum, and 0.45% (w/v) agar, pH5.4; • (2) Isomaltose-preservative group: containing 1.5% (w/v) isomaltose, 0.5% (w/v) sodium propionate, 0.025% (w/v) sodium dehydroacetate, MRS basal medium without carbohydrate, 5% (w/v) calf serum, and 0.45% (w/v) agar, pH5.4; • (3) Isomaltulose-preservative group: containing 1.5% (w/v) isomaltulose, 0.5% (w/v) sodium propionate, 0.025% (w/v) sodium dehydroacetate, MRS basal medium without carbohydrate, 5% (w/v) calf serum, and 0.45% (w/v) agar, pH5.4; • (4) Sucrose control group: containing 1.5% (w/v) sucrose, MRS basal medium without carbohydrate, 5% (w/v) calf serum, and 0.45% (w/v) agar, pH5.4; • (5) Isomaltose control group: containing 1.5% (w/v) isomaltose, MRS basal medium without carbohydrate, 5% (w/v) calf serum, and 0.45% (w/v) agar, pH5.4; and • (6) Isomaltulose control group: containing 1.5% (w/v) isomaltulose, MRS basal medium without carbohydrate, 5% (w/v) calf serum, and 0.45% (w/v) agar, pH5.4.
The semi-solid agar of each group is formulated essentially following the method described in Composition Example 1, then sterilized, added with calf serum, and packed in test tubes in a specification of 5 g/tube, for late use.
as §1, with “2” for “5”, “staining,” for “staining”, “vaginosis,” for “vaginosis”
(3) After sampling, the vaginal secretion specimens from BV patients meeting the criteria of inclusion were immediately inoculated to 3 semi-solid agars containing a carbohydrate and a preservative and 3 control agars at the bedside, and anaerobically incubated at 37° C. for […]. The pH values of the agar matrices are detected with a precise pH test paper after 30 or 32 hrs and 40 or 48 hrs of incubation.

[3] = tested on: Bifidobacteria in the secretions from BV patients; test: Selective promotion of carbohydrate containing gels for the growth of Bifidobacteria (Experimental Example 4); settings: secretions from 20 BV patients; 1% (w/v) carbohydrate gel, 48 hrs slightly aerobic
Procedure: (§2) (3) After sampling, the vaginal secretion specimens from BV patients meeting the criteria of inclusion were immediately inoculated to the above 4 gels containing a carbohydrate, slightly aerobically incubated at 37° C. for 48 hrs, then transferred to a plate containing improved MRS with 1% (w/v) glucose and 5% (w/v) calf serum, slightly aerobically incubated for 20-48 hrs, isolated, purified and multiplied. The strain was identified by 16s rDNA sequencing.

[4] = tested on: Gardnerella vaginalis in the secretions from BV patients; test: Selective promotion of carbohydrate containing gels for the growth of Gardnerella vaginalis (Experimental Example 4); settings: secretions from 20 BV patients; 1% (w/v) carbohydrate gel, 48 hrs slightly aerobic
Procedure: as §2

Canidia albicans = test: Metabolization of carbohydrates by Canidia albicans, residual carbohydrate by HPLC (Experimental Example 5); settings: 72 hrs aerobic, 37° C., initial 1.5% (w/v) carbohydrate, pH 7.0, detection limit 0.05% (w/v)
Procedure: (1) Grouping in experiment:
(2) Test strain: 2 strains of Canidia albicans, isolated from patients with candidal vaginitis.
The supernatant was separated by centrifugation, and packed in a specification of 5 ml/tube. The carbohydrate content in each tube was detected by HPLC.

| Compound | pH of the semi-solid agar (BV-associated bacteria [1]; Specimen 1) | pH of the semi-solid agar (BV-associated bacteria [1]; Specimen 2) | pH of the semi-solid agar (BV-associated bacteria [1]; Specimen 3) | pH of the semi-solid agar (BV-associated bacteria [1]; Specimen 4) | pH of the semi-solid agar (BV-associated bacteria [1]; Specimen 5) | pH of the semi-solid agar (BV-associated bacteria [2]; Specimen 1 (30 hrs)) | pH of the semi-solid agar (BV-associated bacteria [2]; Specimen 2 (32 hrs)) | number of samples positive for Bifidobacterium bifidum [3] | number of samples positive for Bifidobacterium breve [3] | number of samples positive for Bifidobacterium dentium [3] | number of samples positive for Bifidobacterium longum [3] | samples positive for Bifidobacteria, In total [3] | number of samples positive for Gardnerella vaginalis [4] | samples positive for Gardnerella vaginalis, In total [4] | residual carbohydrate content by HPLC (Canidia albicans; Canidia albicans 1) [g %] | residual carbohydrate content by HPLC (Canidia albicans; Canidia albicans 2) [g %] |
| --- | --- | --- | --- | --- | --- | --- | --- | --- | --- | --- | --- | --- | --- | --- | --- | --- |
| OC[C@H]1O[C@@](CO)(O[C@H]2O[C@H](CO)[C@@H](O)[C@H](O)[C@H]2O)[C@@H](O)[C@@H]1O [Sucrose, sucrose] | 4.1-4.4 | 3.8-4.1 | 3.8 | 4.1 | 3.8 | 3.8 | 3.8 | 0 | 0 | 0 | 0 | 0 | 3 (8, 15, 19) | 3 | 1.04 | 0.95 |
| OC[C@H]1O[C@H](OC[C@H]2OC(O)(CO)[C@@H](O)[C@@H]2O)[C@H](O)[C@@H](O)[C@@H]1O (stereo partly drawn) [Isomaltulose, isomaltulose] | 3.8 | 3.8 | 3.8 | 3.8 | 3.8 | 3.8 | 3.8 | 0 | 0 | 0 | 0 | 0 | 2 (15, 19) | 2 | 0.11 | 0.12 |
| OC[C@H]1O[C@H](OC[C@H]2OC(O)[C@H](O)[C@@H](O)[C@@H]2O)[C@H](O)[C@@H](O)[C@@H]1O (stereo partly drawn) [Isomaltose, isomaltose] | 3.8-4.1 | 4.1 | 3.8 | 3.8 | 3.8 | 3.8 | 3.8-4.1 | 0 | 0 | 0 | 0 | 0 | 2 (15, 19) | 2 | 0.74 | 0.76 |
